pIC50: −log10 of the molar value.
Columns and labels:
[1] = tested on: OCI-Ly10; assay: Growth inhibition of human OCILY10 cells at 3.3 uM incubated for 3 days (Rvb= -3%); assay type: functional; conditions: OCI-Ly10, 72 h, time 3 day, read-out: GI
[2] = Metabolic stability in human liver microsomes assessed as intrinsic clearance; assay type: ADME, Microsome; conditions: read-out: CLH
[3] = molecular target: T1, Phosphatidylinositol 4,5-bisphosphate 3-kinase catalytic subunit delta isoform (Homo sapiens, UniProt O00329); assay: Inhibition of PI3Kdelta (unknown origin) in presence of […] uM ATP
T1 sequence (O00329 whole entry): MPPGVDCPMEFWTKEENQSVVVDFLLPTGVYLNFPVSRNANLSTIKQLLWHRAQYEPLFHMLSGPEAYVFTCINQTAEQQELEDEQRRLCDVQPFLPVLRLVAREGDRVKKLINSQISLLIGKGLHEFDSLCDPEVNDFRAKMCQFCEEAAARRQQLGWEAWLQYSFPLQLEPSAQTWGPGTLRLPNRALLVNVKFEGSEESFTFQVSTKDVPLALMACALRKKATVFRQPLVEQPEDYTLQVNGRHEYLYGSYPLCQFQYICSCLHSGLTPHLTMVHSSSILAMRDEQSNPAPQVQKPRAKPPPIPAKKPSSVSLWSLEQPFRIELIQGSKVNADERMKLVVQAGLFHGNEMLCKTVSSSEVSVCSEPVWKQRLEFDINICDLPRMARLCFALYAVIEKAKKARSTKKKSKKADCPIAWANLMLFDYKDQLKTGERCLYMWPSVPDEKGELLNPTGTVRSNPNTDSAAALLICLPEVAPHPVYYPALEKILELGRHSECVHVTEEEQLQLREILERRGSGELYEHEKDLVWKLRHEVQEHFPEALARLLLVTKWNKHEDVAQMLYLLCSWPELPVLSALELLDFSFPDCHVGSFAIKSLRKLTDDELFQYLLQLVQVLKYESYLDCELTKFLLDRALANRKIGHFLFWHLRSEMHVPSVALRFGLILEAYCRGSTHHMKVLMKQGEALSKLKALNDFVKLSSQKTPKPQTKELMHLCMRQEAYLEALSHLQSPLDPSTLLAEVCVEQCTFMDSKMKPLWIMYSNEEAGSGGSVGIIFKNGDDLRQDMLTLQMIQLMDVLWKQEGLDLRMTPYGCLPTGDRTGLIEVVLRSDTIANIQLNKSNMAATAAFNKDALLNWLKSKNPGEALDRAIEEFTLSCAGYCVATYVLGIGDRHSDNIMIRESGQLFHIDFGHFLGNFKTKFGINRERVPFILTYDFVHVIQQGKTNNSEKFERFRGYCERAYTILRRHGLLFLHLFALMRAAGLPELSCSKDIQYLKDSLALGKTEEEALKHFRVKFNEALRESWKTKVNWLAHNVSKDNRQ

[4] = molecular target: Tyrosine-protein kinase BTK (Homo sapiens, UniProt Q06187); assay: Inhibition of BTK (unknown origin) in presence of 25 uM ATP
[5] = tested on: SUD4; assay: Growth inhibition of human SU-DHL-4 cells at 1.7 uM incubated for 3 days (reference value: 2%); assay type: functional; conditions: SU-DHL-4, 72 h, time 3 day, read-out: GI
[6] = tested on: SUD4; assay: Growth inhibition of human SU-DHL-4 cells at 10 uM incubated for 3 days (reference value: 2%); assay type: functional; conditions: SU-DHL-4, 72 h, time 3 day, read-out: GI
[7] = molecular target: Interleukin-1 receptor-associated kinase 1 (Homo sapiens, UniProt P51617); assay: Inhibition of IRAK1 (unknown origin) in presence of 25 uM ATP
[8] = molecular target: BDNF/NT-3 growth factors receptor (Homo sapiens, UniProt Q16620); assay: Inhibition of TRKB (unknown origin) in presence of 25 uM ATP
[9] = Oral bioavailability in mouse at 1 mg/kg; assay type: ADME, organism-based; conditions: in vivo
[10] = Clearance in cynomolgus monkey at 1 mg/kg, iv; assay type: ADME, organism-based, Macaca fascicularis; conditions: in vivo
[11] = Metabolic stability in minipig hepatocytes assessed as intrinsic clearance measured per 10^6 cells; assay type: ADME, cell-based, Sus scrofa domesticus, Hepatocyte; conditions: pig, read-out: CLH
[12] = Metabolic stability in monkey hepatocytes assessed as intrinsic clearance measured per 10^6 cells; assay type: ADME, cell-based, Macaca mulatta, Hepatocyte; conditions: rhesus monkey, read-out: CLH
[13] = Volume of distribution at steady state in Han Wistar rat at 2 mg/kg, po or 1 mg/kg, iv; assay type: ADME, organism-based; conditions: in vivo
[14] = tested on: SUD4; assay: Growth inhibition of human SU-DHL-4 cells at 10 uM incubated for 3 days (reference value: -1%); assay type: functional; conditions: SU-DHL-4, 72 h, time 3 day, read-out: GI
[15] = Metabolic stability in rat hepatocytes assessed as intrinsic clearance measured per 10^6 cells; assay type: ADME, cell-based, Hepatocyte; conditions: read-out: CLH
[16] = Terminal half life in cynomolgus monkey at 1 mg/kg, iv; assay type: ADME, organism-based, Macaca fascicularis; conditions: in vivo, read-out: beta t1/2 (converted)
[17] = Plasma protein binding in rat assessed as free fraction by equilibrium dialysis analysis; assay type: ADME, cell-free
[18] = Terminal half life in CD1 mouse at 0.5 mg/kg, iv; assay type: ADME, organism-based; conditions: in vivo, read-out: beta t1/2 (converted)
[19] = molecular target: T2, Phosphatidylinositol 4,5-bisphosphate 3-kinase catalytic subunit delta isoform (Homo sapiens) (UniProt O00329); assay: Inhibition of PI3Kdelta (unknown origin) at 0.1 uM relative to control
T2 sequence (whole entry): T1 sequence (O00329 whole entry)

[20] = Metabolic stability in monkey liver microsomes assessed as intrinsic clearance; assay type: ADME, Macaca mulatta, Microsome; conditions: rhesus monkey, read-out: CLH
[21] = tested on: SUD4; assay: Growth inhibition of human SU-DHL-4 cells at 0.33 uM incubated for 3 days (reference value: -1%); assay type: functional; conditions: SU-DHL-4, 72 h, time 3 day, read-out: GI
[22] = Metabolic stability in human liver microsomes assessed as half life; assay type: ADME, Microsome
[23] = Volume of distribution at steady state in cynomolgus monkey at 1 mg/kg, iv; assay type: ADME, organism-based, Macaca fascicularis; conditions: in vivo, read-out: Vdss
[24] = molecular target: T3, Interleukin-1 receptor-associated kinase 4 (Homo sapiens) (UniProt Q9NWZ3); assay: Inhibition of IRAK4 (unknown origin) at 0.1 uM relative to control
T3 sequence (whole entry): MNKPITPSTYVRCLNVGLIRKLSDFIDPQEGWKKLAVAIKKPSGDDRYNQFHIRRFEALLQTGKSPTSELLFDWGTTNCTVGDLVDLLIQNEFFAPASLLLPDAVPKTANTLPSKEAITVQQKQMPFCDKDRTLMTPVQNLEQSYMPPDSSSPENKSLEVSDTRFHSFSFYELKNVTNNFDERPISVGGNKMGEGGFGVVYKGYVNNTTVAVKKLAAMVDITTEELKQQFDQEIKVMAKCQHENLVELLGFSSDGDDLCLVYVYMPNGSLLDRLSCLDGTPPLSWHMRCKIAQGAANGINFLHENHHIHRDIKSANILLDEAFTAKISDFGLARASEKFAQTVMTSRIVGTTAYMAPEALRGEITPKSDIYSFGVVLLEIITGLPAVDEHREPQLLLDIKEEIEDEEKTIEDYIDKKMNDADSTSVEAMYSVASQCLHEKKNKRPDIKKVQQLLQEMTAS

[25] = Oral bioavailability in CD1 mouse at 1 mg/kg; assay type: ADME, organism-based; conditions: in vivo
[26] = tested on: OCI-Ly10; assay: Growth inhibition of human OCILY10 cells at 0.33 uM incubated for 3 days (reference value: -2%); assay type: functional; conditions: OCI-Ly10, 72 h, time 3 day, read-out: GI
[27] = tested on: OCI-Ly10; assay: Growth inhibition of human OCILY10 cells at 3.3 uM incubated for 3 days (reference value: -2%); assay type: functional; conditions: OCI-Ly10, 72 h, time 3 day, read-out: GI
[28] = tested on: OCI-Ly10; assay: Growth inhibition of human OCILY10 cells at 10 uM incubated for 3 days (reference value: -2%); assay type: functional; conditions: OCI-Ly10, 72 h, time 3 day, read-out: GI

Chain of BDNF/NT-3 growth factors receptor (Q16620 whole entry): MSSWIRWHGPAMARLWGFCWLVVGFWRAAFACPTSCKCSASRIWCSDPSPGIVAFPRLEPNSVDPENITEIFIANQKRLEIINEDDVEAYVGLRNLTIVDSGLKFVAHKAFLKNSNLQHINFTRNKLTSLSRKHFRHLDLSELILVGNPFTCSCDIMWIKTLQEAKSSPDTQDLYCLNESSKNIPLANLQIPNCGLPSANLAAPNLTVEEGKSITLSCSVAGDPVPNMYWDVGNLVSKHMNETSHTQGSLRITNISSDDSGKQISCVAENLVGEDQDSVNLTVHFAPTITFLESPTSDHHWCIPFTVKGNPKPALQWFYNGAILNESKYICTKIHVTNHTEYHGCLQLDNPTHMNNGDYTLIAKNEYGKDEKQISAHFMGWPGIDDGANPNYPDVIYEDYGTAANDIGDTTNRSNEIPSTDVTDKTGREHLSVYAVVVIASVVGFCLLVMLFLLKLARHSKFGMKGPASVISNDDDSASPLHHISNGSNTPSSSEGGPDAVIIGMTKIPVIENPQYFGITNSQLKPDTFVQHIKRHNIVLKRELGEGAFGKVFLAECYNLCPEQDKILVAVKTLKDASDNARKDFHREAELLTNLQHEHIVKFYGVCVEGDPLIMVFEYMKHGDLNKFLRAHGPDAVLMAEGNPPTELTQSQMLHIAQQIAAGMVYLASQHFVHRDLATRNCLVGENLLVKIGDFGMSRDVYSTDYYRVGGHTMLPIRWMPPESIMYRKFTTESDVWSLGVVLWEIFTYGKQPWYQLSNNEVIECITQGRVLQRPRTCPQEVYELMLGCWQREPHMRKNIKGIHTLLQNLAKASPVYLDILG
Chain of Interleukin-1 receptor-associated kinase 1 (P51617 whole entry): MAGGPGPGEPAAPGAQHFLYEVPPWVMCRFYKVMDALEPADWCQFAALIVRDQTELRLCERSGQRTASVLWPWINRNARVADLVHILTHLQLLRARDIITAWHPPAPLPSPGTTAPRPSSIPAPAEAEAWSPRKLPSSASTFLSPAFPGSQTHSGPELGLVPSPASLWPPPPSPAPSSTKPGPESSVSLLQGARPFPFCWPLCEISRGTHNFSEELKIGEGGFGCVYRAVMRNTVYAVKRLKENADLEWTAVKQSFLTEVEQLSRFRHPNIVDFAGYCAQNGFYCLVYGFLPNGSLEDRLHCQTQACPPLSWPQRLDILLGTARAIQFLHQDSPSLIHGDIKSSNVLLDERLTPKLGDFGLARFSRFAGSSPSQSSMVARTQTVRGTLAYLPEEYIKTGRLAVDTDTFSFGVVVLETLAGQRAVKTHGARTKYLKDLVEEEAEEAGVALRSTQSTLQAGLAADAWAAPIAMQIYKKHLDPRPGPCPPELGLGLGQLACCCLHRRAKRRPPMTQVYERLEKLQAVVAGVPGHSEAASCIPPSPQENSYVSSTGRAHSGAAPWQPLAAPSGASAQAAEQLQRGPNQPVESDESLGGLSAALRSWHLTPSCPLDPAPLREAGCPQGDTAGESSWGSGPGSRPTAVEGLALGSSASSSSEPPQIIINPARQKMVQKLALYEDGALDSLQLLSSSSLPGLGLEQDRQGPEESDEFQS
Chain of Tyrosine-protein kinase BTK (Q06187 whole entry): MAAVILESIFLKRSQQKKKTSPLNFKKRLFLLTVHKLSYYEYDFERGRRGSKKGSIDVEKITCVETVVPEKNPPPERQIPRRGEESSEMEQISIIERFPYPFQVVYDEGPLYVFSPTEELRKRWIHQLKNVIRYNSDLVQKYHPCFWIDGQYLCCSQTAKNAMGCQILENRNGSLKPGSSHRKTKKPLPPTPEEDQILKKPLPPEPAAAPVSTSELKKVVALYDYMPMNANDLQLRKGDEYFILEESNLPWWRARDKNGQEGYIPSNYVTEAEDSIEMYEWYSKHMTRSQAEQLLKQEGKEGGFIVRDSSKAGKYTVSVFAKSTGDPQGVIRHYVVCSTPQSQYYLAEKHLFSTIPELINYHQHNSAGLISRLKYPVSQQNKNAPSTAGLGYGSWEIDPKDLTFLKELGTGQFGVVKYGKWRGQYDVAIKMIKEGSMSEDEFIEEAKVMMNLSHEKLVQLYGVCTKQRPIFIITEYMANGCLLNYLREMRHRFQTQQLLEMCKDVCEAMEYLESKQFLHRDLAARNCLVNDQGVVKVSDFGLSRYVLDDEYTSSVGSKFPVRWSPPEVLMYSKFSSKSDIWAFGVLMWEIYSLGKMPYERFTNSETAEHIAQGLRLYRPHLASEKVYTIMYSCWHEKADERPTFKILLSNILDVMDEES

Cc1ncc(-c2nc3c(NC(C)C)nc(Nc4cnn(C5CC6(C5)CN(C)C6)c4)nc3cc2F)cn1
inhibition of growth at 3.3 µM [1]: 105% | microsomal CLint [2]: < 3 µL/min/mg | pIC50 [3]: 6.64 | pIC50 [4]: < 5.00 | inhibition of growth at 1.7 µM [5]: 3% | inhibition of growth at 10 µM [6]: 6% | pIC50 [7]: 5.92 | pIC50 [8]: 6.03 | bioavailability [9]: ≤ 10%

Cc1ncc(-c2nc3c(OC4(C)CC4)nc(Nc4cnn(C5CCN(C)CC5)c4)nc3cc2F)cn1
clearance [10]: 68 mL/min/kg | hepatocyte CLint [11]: 8.2 µL/min/1e6 cells | hepatocyte CLint [12]: 4.7 µL/min/1e6 cells | Vdss [13]: 4.3 L/kg | inhibition of growth at 3.3 µM [1]: 76% | inhibition of growth at 10 µM [14]: 0% | hepatocyte CLint [15]: 5.6 µL/min/1e6 cells | microsomal CLint [2]: 58 µL/min/mg | pIC50 [3]: 7.28 | half-life [16]: 1.4 h | pIC50 [4]: < 5.10 | fraction unbound [17]: 0.21 | half-life [18]: 4.2 h | inhibition [19]: 61% | microsomal CLint [20]: 35 µL/min/mg | inhibition of growth at 0.33 µM [21]: -1% | pIC50 [7]: 5.85 | half-life [22]: 3 h | Vd [23]: 8.6 L/kg | pIC50 [8]: 6.12 | inhibition [24]: 102% | bioavailability [25]: 66%

CC[C@@H]1[C@H](F)C(=O)N[C@@H]1COc1nccc2cc(C(N)=O)c(OC)cc12 [ZIMLOVISERTIB]
inhibition of growth at 10 µM [14]: 2% | inhibition of growth at 0.33 µM [26]: 5% | inhibition of growth at 0.33 µM [21]: 1% | inhibition of growth at 3.3 µM [27]: 20% | inhibition of growth at 10 µM [28]: 63%

Source: ChEMBL document CHEMBL5244269, “Improving metabolic stability and removing aldehyde oxidase liability in a 5-azaquinazoline series of IRAK4 inhibitors” (Bioorg Med Chem, 2020)
